The values below come from PubChem BioAssay AID1259407 (Chemical Carcinogenesis Research Information System (CCRIS), 2018).

Activity calls are given as the source filed them. No rule for the calls is given here.

This data set relates to CCRIS mutagenicity, Ames/micronucleus/aberration tests. Put plainly: CCRIS mutagenicity studies.
Where [1] appears, read: Test System: AMES SALMONELLA TYPHIMURIUM, Strain/Indicator: TA98, Metabolic Activation: NONE, Method: PREINCUBATION
Setting [2] is: Test System: AMES SALMONELLA TYPHIMURIUM, Strain/Indicator: TA98, Metabolic Activation: NONE, Method: STANDARD PLATE.
Setting [3] is: Test System: AMES SALMONELLA TYPHIMURIUM, Strain/Indicator: TA100, Metabolic Activation: NONE, Method: STANDARD PLATE.

As to `CCCCOc1ccc(C=Nc2ccc(CC)cc2)cc1`, the mutagenic call is, setting by setting: (Test System: AMES SALMONELLA TYPHIMURIUM, Strain/Indicator: TA97, Metabolic Activation: HAMSTER, LIVER, S-9, AROCLOR 1254 (30%), Method: PREINCUBATION) “inactive; negative”; (Test System: AMES SALMONELLA TYPHIMURIUM, Strain/Indicator: TA97, Metabolic Activation: NONE, Method: PREINCUBATION) “inactive; negative”; (Test System: AMES SALMONELLA TYPHIMURIUM, Strain/Indicator: TA97, Metabolic Activation: RAT, LIVER, S-9, AROCLOR 1254 (30%), Method: PREINCUBATION) “inactive; negative”; (Test System: AMES SALMONELLA TYPHIMURIUM, Strain/Indicator: TA98, Metabolic Activation: HAMSTER, LIVER, S-9, AROCLOR 1254 (30%), Method: PREINCUBATION) “inactive; negative”; under setting [1], “inactive; negative”; (Test System: AMES SALMONELLA TYPHIMURIUM, Strain/Indicator: TA98, Metabolic Activation: RAT, LIVER, S-9, AROCLOR 1254 (30%), Method: PREINCUBATION) “inactive; negative”. The mutagenic call was “inactive; negative” (Test System: AMES SALMONELLA TYPHIMURIUM, Strain/Indicator: TA100, Metabolic Activation: HAMSTER, LIVER, S-9, AROCLOR 1254 (10%), Method: PREINCUBATION); “inactive; negative” (Test System: AMES SALMONELLA TYPHIMURIUM, Strain/Indicator: TA100, Metabolic Activation: NONE, Method: PREINCUBATION); “inactive; negative” (Test System: AMES SALMONELLA TYPHIMURIUM, Strain/Indicator: TA100, Metabolic Activation: RAT, LIVER, S-9, AROCLOR 1254 (30%), Method: PREINCUBATION); “inactive; negative” (Test System: AMES SALMONELLA TYPHIMURIUM, Strain/Indicator: TA1535, Metabolic Activation: HAMSTER, LIVER, S-9, AROCLOR 1254 (10%), Method: PREINCUBATION); “inactive; negative” (Test System: AMES SALMONELLA TYPHIMURIUM, Strain/Indicator: TA1535, Metabolic Activation: HAMSTER, LIVER, S-9, AROCLOR 1254 (30%), Method: PREINCUBATION); “inactive; negative” (Test System: AMES SALMONELLA TYPHIMURIUM, Strain/Indicator: TA1535, Metabolic Activation: NONE, Method: PREINCUBATION). Further, the mutagenic call (Test System: AMES SALMONELLA TYPHIMURIUM, Strain/Indicator: TA1535, Metabolic Activation: RAT, LIVER, S-9, AROCLOR 1254 (30%), Method: PREINCUBATION) is “inactive; negative”; the mutagenic call (Test System: AMES SALMONELLA TYPHIMURIUM, Strain/Indicator: TA1537, Metabolic Activation: HAMSTER, LIVER, S-9, AROCLOR 1254 (30%), Method: PREINCUBATION) was “inactive; negative”; the mutagenic call (Test System: AMES SALMONELLA TYPHIMURIUM, Strain/Indicator: TA1537, Metabolic Activation: NONE, Method: PREINCUBATION) was “inactive; negative”; the mutagenic call (Test System: AMES SALMONELLA TYPHIMURIUM, Strain/Indicator: TA1537, Metabolic Activation: RAT, LIVER, S-9, AROCLOR 1254 (30%), Method: PREINCUBATION) is “inactive; negative”.
Take `CCN(CC)c1ccc(N=Nc2ccc(N=Nc3c(S(=O)(=O)O)cc4ccc(N)cc4c3O)c(OCCO)c2)cc1`: the mutagenic call under setting [2] was “inactive; negative”; the mutagenic call (Test System: AMES SALMONELLA TYPHIMURIUM, Strain/Indicator: TA98, Metabolic Activation: RAT, LIVER, S-9, AROCLOR 1254, Method: STANDARD PLATE) is “active; positive”; the mutagenic call under setting [3] was “inactive; negative”; the mutagenic call (Test System: AMES SALMONELLA TYPHIMURIUM, Strain/Indicator: TA100, Metabolic Activation: RAT, LIVER, S-9, AROCLOR 1254, Method: STANDARD PLATE) is “inactive; negative”; the mutagenic call (Test System: AMES SALMONELLA TYPHIMURIUM, Strain/Indicator: TA1538, Metabolic Activation: NONE, Method: STANDARD PLATE) was “inactive; negative”; the mutagenic call (Test System: AMES SALMONELLA TYPHIMURIUM, Strain/Indicator: TA1538, Metabolic Activation: RAT, LIVER, S-9, AROCLOR 1254, Method: STANDARD PLATE) is “active; positive”.
Take `Fc1ccc2c3c(ccc2c1)-c1cccc2cccc-3c12`: the mutagenic call reads like this: (Test System: AMES SALMONELLA TYPHIMURIUM, Strain/Indicator: TA97A, Metabolic Activation: RAT, LIVER, S-9, AROCLOR 1254, Method: PREINCUBATION) “active; positive”; (Test System: AMES SALMONELLA TYPHIMURIUM, Strain/Indicator: TA98, Metabolic Activation: RAT, LIVER, S-9, AROCLOR 1254, Method: PREINCUBATION) “active; positive”; (Test System: AMES SALMONELLA TYPHIMURIUM, Strain/Indicator: TA100, Metabolic Activation: RAT, LIVER, S-9, AROCLOR 1254, Method: PREINCUBATION) “active; positive”.
`O=[N+]([O-])c1ccc2ccc3cc4ccccc4c4ccc1c2c34`: the mutagenic call by setting is: (Test System: AMES SALMONELLA TYPHIMURIUM, Strain/Indicator: TA98(1,8-DNP6), Metabolic Activation: NONE) “active; positive”; (Test System: AMES SALMONELLA TYPHIMURIUM, Strain/Indicator: TA98(1,8-DNP6), Metabolic Activation: NONE, Method: STANDARD PLATE) “active; positive”; (Test System: AMES SALMONELLA TYPHIMURIUM, Strain/Indicator: TA98(1,8-DNP6), Metabolic Activation: RAT, LIVER, S-9, AROCLOR 1254) “active; positive”; (Test System: AMES SALMONELLA TYPHIMURIUM, Strain/Indicator: TA98(NR), Metabolic Activation: NONE) “active; positive”; (Test System: AMES SALMONELLA TYPHIMURIUM, Strain/Indicator: TA98(NR), Metabolic Activation: NONE, Method: PREINCUBATION) “active; positive”; (Test System: AMES SALMONELLA TYPHIMURIUM, Strain/Indicator: TA98(NR), Metabolic Activation: NONE, Method: STANDARD PLATE) “inactive; negative”. Moreover, the mutagenic call by setting is: (Test System: AMES SALMONELLA TYPHIMURIUM, Strain/Indicator: TA98(NR), Metabolic Activation: RAT, LIVER, S-9, AROCLOR 1254) “active; positive”; (Test System: AMES SALMONELLA TYPHIMURIUM, Strain/Indicator: TA98, Metabolic Activation: NONE) “active; positive”; (Test System: AMES SALMONELLA TYPHIMURIUM, Strain/Indicator: TA98, Metabolic Activation: NONE', Method: STANDARD PLATE) “active; positive”; under setting [1], “active; positive”; under setting [2], “active; positive”; (Test System: AMES SALMONELLA TYPHIMURIUM, Strain/Indicator: TA98, Metabolic Activation: NONE, Method: STANDARD PLATE (ANAEROBIC)) “active; positive”. Further, the mutagenic call was “active; positive” (Test System: AMES SALMONELLA TYPHIMURIUM, Strain/Indicator: TA98, Metabolic Activation: RAT, LIVER, HEPATOCYTES, AROCLOR 1254); “active; positive” (Test System: AMES SALMONELLA TYPHIMURIUM, Strain/Indicator: TA98, Metabolic Activation: RAT, LIVER, S-9, AROCLOR 1254); “active; positive” under setting [3]; “inactive; negative” (Test System: CHINESE HAMSTER OVARY, Strain/Indicator: CHO-K1-BH4 (HGPRT), Metabolic Activation: NONE); “active; positive” (Test System: CHINESE HAMSTER OVARY, Strain/Indicator: CHO-K1-BH4 (HGPRT), Metabolic Activation: RAT, LIVER, S-9, 3-METHYLCHOLANTHRENE); “inactive; negative” (Test System: CHO/HGPRT, Strain/Indicator: CHO-K1-BH4, Metabolic Activation: NONE). Also, the mutagenic call by setting is: (Test System: CHO/HGPRT, Strain/Indicator: CHO-K1-BH4, Metabolic Activation: RAT, LIVER, HEPATOCYTES) “inactive; negative”; (Test System: CHO/HGPRT, Strain/Indicator: CHO-K1-BH4, Metabolic Activation: RAT, LIVER, HEPATOCYTES, 3-METHYLCHOLANTHRENE) “inactive; negative”; (Test System: CHO/HGPRT, Strain/Indicator: CHO-K1-BH4, Metabolic Activation: RAT, LIVER, HEPATOCYTES, AROCLOR 1254) “inactive; negative”; (Test System: CHO/HGPRT, Strain/Indicator: CHO-K1-BH4, Metabolic Activation: RAT, LIVER, S-9) “inactive; negative”; (Test System: CHO/HGPRT, Strain/Indicator: CHO-K1-BH4, Metabolic Activation: RAT, LIVER, S-9, 3-METHYLCHOLANTHRENE) “active; positive”; (Test System: CHO/HGPRT, Strain/Indicator: CHO-K1-BH4, Metabolic Activation: RAT, LIVER, S-9, AROCLOR 1254) “active; positive”.
